In the supplement of paper PMC13207355:
± gives the standard deviation of the averaged measurements.

Assays:
Details in all cases: exposure time: 72 h
[1] = system: E13 (patient-derived glioblastoma stem cells of classical subtype); assay: surviving fraction (nuclei count normalised to DMSO); higher = more cells surviving (less toxic)
[2] = system: E21 (patient-derived glioblastoma stem cells of mesenchymal subtype); assay: as above
[3] = system: E28 (patient-derived glioblastoma stem cells of classical subtype); assay: as above
[4] = system: E34 (patient-derived glioblastoma stem cells of proneural subtype); assay: as above
[5] = system: E57 (patient-derived glioblastoma stem cells of mesenchymal subtype); assay: as above
[6] = system: FT3469 (normal neural stem cell line); assay: as above
[7] = system: E13; assay: phenotypic distance (Euclidean, principal components) from DMSO controls (arbitrary units); higher = stronger morphological change
[8] = system: E21; assay: as above
[9] = system: E28; assay: as above
[10] = system: E34; assay: as above
[11] = system: E57; assay: as above
[12] = system: FT3469; assay: as above
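For phenotypic distance (Euclidean, principal components) from DMSO controls in this document: cell Painting imaging in 384-well plates, CellProfiler features reduced to at least 20 principal components, Euclidean distance versus same-plate DMSO vehicle wells (0.1% v/v), median over six images per well.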
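For surviving fraction (nuclei count normalised to DMSO) in this document: nuclei counted by high-content imaging of Hoechst-stained cells in laminin-coated 384-well plates, relative to 0.1% DMSO vehicle wells, with staurosporine as cell-death control.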

CC(C)C[C@H](NC(=O)[C@H](Cc1ccccc1)C[C@@H](O)[C@H](Cc1ccccc1)NC(=O)OC(C)(C)C)C(=O)N[C@@H](Cc1ccccc1)C(N)=O [L-685,458]
Details	phenotypic distance	surviving fraction
[1], 4.1 nM	–	1.06
[1], 4.11523 nM	–	1.16
[1], 12.3 nM	–	1.04
[1], 12.34567901 nM	–	1.1
[1], 37 nM	–	1.01
[1], 37.037 nM	–	0.999
[1], 111.1 nM	–	1.18
[1], 111.1111111 nM	–	1.01
[1], 333.3 nM	–	1.02
[1], 333.333 nM	–	1.09
[1], 1000 nM	–	1.14 ± 0.11
[1], 3000 nM	–	1.01 ± 0.018
[2], 4.1 nM	–	0.96
[2], 4.11523 nM	–	0.891
[2], 12.3 nM	–	0.969
[2], 12.34567901 nM	–	0.958
[2], 37 nM	–	0.95
[2], 37.037 nM	–	0.941
[2], 111.1 nM	–	1.03
[2], 111.1111111 nM	–	1.03
[2], 333.3 nM	–	0.861
[2], 333.333 nM	–	1.04
[2], 1000 nM	–	1.05 ± 0.053
[2], 3000 nM	–	0.948 ± 0.022
[3], 4.1 nM	–	0.997
[3], 4.11523 nM	–	1.1
[3], 12.3 nM	–	1.15
[3], 12.34567901 nM	–	0.885
[3], 37 nM	–	0.825
[3], 37.037 nM	–	1.02
[3], 111.1 nM	–	1.11
[3], 111.1111111 nM	–	0.813
[3], 333.3 nM	–	0.795
[3], 333.333 nM	–	1.02
[3], 1000 nM	–	0.858 ± 0.077
[3], 3000 nM	–	0.834 ± 0.13
[4], 4.1 nM	–	0.787
[4], 4.11523 nM	–	0.957
[4], 12.3 nM	–	1.02
[4], 12.34567901 nM	–	0.895
[4], 37 nM	–	0.964
[4], 37.037 nM	–	1.09
[4], 111.1 nM	–	0.946
[4], 111.1111111 nM	–	0.976
[4], 333.3 nM	–	0.746
[4], 333.333 nM	–	1.15
[4], 1000 nM	–	1 ± 0.059
[4], 3000 nM	–	0.924 ± 0.091
[5], 4.1 nM	–	1.04
[5], 4.11523 nM	–	0.963
[5], 12.3 nM	–	0.967
[5], 12.34567901 nM	–	0.988
[5], 37 nM	–	0.958
[5], 37.037 nM	–	0.998
[5], 111.1 nM	–	1.01
[5], 111.1111111 nM	–	1.03
[5], 333.3 nM	–	1.08
[5], 333.333 nM	–	0.989
[5], 1000 nM	–	1.04 ± 0.037
[5], 3000 nM	–	1 ± 0.024
[6], 4.1 nM	–	0.944
[6], 4.11523 nM	–	0.979
[6], 12.3 nM	–	1.02
[6], 12.34567901 nM	–	0.858
[6], 37 nM	–	0.9
[6], 37.037 nM	–	1.03
[6], 111.1 nM	–	0.901
[6], 111.1111111 nM	–	0.984
[6], 333.3 nM	–	0.882
[6], 333.333 nM	–	0.884
[6], 1000 nM	–	0.867 ± 0.076
[6], 3000 nM	–	0.838 ± 0.065
[7], 4.1 nM	0.562	–
[7], 4.11523 nM	0.913	–
[7], 12.3 nM	0.877	–
[7], 12.34567901 nM	0.727	–
[7], 37 nM	0.594	–
[7], 37.037 nM	0.991	–
[7], 111.1 nM	0.891	–
[7], 111.1111111 nM	2.26	–
[7], 333.3 nM	0.794	–
[7], 333.333 nM	0.929	–
[7], 1000 nM	1.66 ± 1.3	–
[7], 3000 nM	0.881 ± 0.11	–
[8], 4.1 nM	0.782	–
[8], 4.11523 nM	0.593	–
[8], 12.3 nM	0.577	–
[8], 12.34567901 nM	0.764	–
[8], 37 nM	0.535	–
[8], 37.037 nM	0.752	–
[8], 111.1 nM	0.68	–
[8], 111.1111111 nM	0.628	–
[8], 333.3 nM	0.73	–
[8], 333.333 nM	0.786	–
[8], 1000 nM	0.724 ± 0.13	–
[8], 3000 nM	0.836 ± 0.1	–
[9], 4.1 nM	0.474	–
[9], 4.11523 nM	0.565	–
[9], 12.3 nM	0.894	–
[9], 12.34567901 nM	0.663	–
[9], 37 nM	0.847	–
[9], 37.037 nM	0.502	–
[9], 111.1 nM	0.482	–
[9], 111.1111111 nM	0.958	–
[9], 333.3 nM	0.937	–
[9], 333.333 nM	0.39	–
[9], 1000 nM	0.79 ± 0.3	–
[9], 3000 nM	0.756 ± 0.4	–
[10], 4.1 nM	1.11	–
[10], 4.11523 nM	0.526	–
[10], 12.3 nM	0.954	–
[10], 12.34567901 nM	0.619	–
[10], 37 nM	0.627	–
[10], 37.037 nM	0.56	–
[10], 111.1 nM	0.75	–
[10], 111.1111111 nM	0.762	–
[10], 333.3 nM	1.1	–
[10], 333.333 nM	0.452	–
[10], 1000 nM	0.948 ± 0.099	–
[10], 3000 nM	1.12 ± 0.25	–
[11], 4.1 nM	0.808	–
[11], 4.11523 nM	1.06	–
[11], 12.3 nM	1.19	–
[11], 12.34567901 nM	0.938	–
[11], 37 nM	1.05	–
[11], 37.037 nM	0.959	–
[11], 111.1 nM	1.22	–
[11], 111.1111111 nM	0.783	–
[11], 333.3 nM	0.893	–
[11], 333.333 nM	1.03	–
[11], 1000 nM	1.1 ± 0.095	–
[11], 3000 nM	1.07 ± 0.29	–
[12], 4.1 nM	0.822	–
[12], 4.11523 nM	0.544	–
[12], 12.3 nM	0.633	–
[12], 12.34567901 nM	0.898	–
[12], 37 nM	0.582	–
[12], 37.037 nM	0.598	–
[12], 111.1 nM	1.41	–
[12], 111.1111111 nM	0.791	–
[12], 333.3 nM	0.871	–
[12], 333.333 nM	0.681	–
[12], 1000 nM	0.906 ± 0.059	–
[12], 3000 nM	1.06 ± 0.32	–

C[C@H](NC(=O)[C@@H](O)c1cc(F)cc(F)c1)C(=O)N[C@@H]1C(=O)N(C)c2ccccc2-c2ccccc21
Details	phenotypic distance	surviving fraction
[1], 4.1 nM	–	1.02 ± 0.15
[1], 12.3 nM	–	1.075 ± 0.0081
[1], 37 nM	–	1.02 ± 0.065
[1], 111.1 nM	–	1.03 ± 0.024
[1], 333.3 nM	–	1.08 ± 0.081
[1], 1000 nM	–	1.07 ± 0.046
[1], 3000 nM	–	0.995 ± 0.058
[2], 4.1 nM	–	0.89 ± 0.018
[2], 12.3 nM	–	0.9941 ± 0.0084
[2], 37 nM	–	0.938 ± 0.015
[2], 111.1 nM	–	0.902 ± 0.039
[2], 333.3 nM	–	0.872 ± 0.072
[2], 1000 nM	–	0.883 ± 0.036
[2], 3000 nM	–	0.898 ± 0.035
[3], 4.1 nM	–	0.852 ± 0.073
[3], 12.3 nM	–	0.866 ± 0.055
[3], 37 nM	–	0.942 ± 0.074
[3], 111.1 nM	–	0.918 ± 0.13
[3], 333.3 nM	–	0.925 ± 0.024
[3], 1000 nM	–	0.835 ± 0.086
[3], 3000 nM	–	0.891 ± 0.0093
[4], 4.1 nM	–	0.841 ± 0.3
[4], 12.3 nM	–	0.811 ± 0.045
[4], 37 nM	–	0.801 ± 0.099
[4], 111.1 nM	–	0.907 ± 0.25
[4], 333.3 nM	–	0.862 ± 0.14
[4], 1000 nM	–	0.775 ± 0.11
[4], 3000 nM	–	0.875 ± 0.1
[5], 4.1 nM	–	0.906 ± 0.036
[5], 12.3 nM	–	0.947 ± 0.018
[5], 37 nM	–	0.939 ± 0.027
[5], 111.1 nM	–	0.922 ± 0.042
[5], 333.3 nM	–	0.9779 ± 0.0074
[5], 1000 nM	–	0.943 ± 0.089
[5], 3000 nM	–	0.931 ± 0.12
[6], 4.1 nM	–	0.89 ± 0.062
[6], 12.3 nM	–	0.882 ± 0.071
[6], 37 nM	–	0.89 ± 0.049
[6], 111.1 nM	–	0.906 ± 0.032
[6], 333.3 nM	–	0.896 ± 0.084
[6], 1000 nM	–	0.875 ± 0.048
[6], 3000 nM	–	0.828 ± 0.041
[7], 4.1 nM	0.77 ± 0.23	–
[7], 12.3 nM	0.711 ± 0.02	–
[7], 37 nM	0.622 ± 0.052	–
[7], 111.1 nM	0.7795 ± 0.0029	–
[7], 333.3 nM	0.785 ± 0.014	–
[7], 1000 nM	0.723 ± 0.061	–
[7], 3000 nM	0.862 ± 0.29	–
[8], 4.1 nM	0.769 ± 0.025	–
[8], 12.3 nM	2.05 ± 0.56	–
[8], 37 nM	1.5 ± 0.98	–
[8], 111.1 nM	0.896 ± 0.046	–
[8], 333.3 nM	3.99 ± 4.1	–
[8], 1000 nM	1.02 ± 0.12	–
[8], 3000 nM	1.01 ± 0.22	–
[9], 4.1 nM	0.845 ± 0.08	–
[9], 12.3 nM	0.88 ± 0.22	–
[9], 37 nM	0.919 ± 0.12	–
[9], 111.1 nM	0.756 ± 0.19	–
[9], 333.3 nM	0.96 ± 0.036	–
[9], 1000 nM	1.03 ± 0.061	–
[9], 3000 nM	1.13 ± 0.34	–
[10], 4.1 nM	1.26 ± 0.65	–
[10], 12.3 nM	0.926 ± 0.098	–
[10], 37 nM	1.15 ± 0.07	–
[10], 111.1 nM	1.04 ± 0.25	–
[10], 333.3 nM	1.01 ± 0.31	–
[10], 1000 nM	1.24 ± 0.14	–
[10], 3000 nM	1.49 ± 0.21	–
[11], 4.1 nM	1.25 ± 0.31	–
[11], 12.3 nM	1.21 ± 0.19	–
[11], 37 nM	1.87 ± 1.2	–
[11], 111.1 nM	1.2 ± 0.015	–
[11], 333.3 nM	1.284 ± 0.0023	–
[11], 1000 nM	1.34 ± 0.35	–
[11], 3000 nM	1.43 ± 0.39	–
[12], 4.1 nM	1.01 ± 0.32	–
[12], 12.3 nM	0.677 ± 0.012	–
[12], 37 nM	0.997 ± 0.026	–
[12], 111.1 nM	0.721 ± 0.25	–
[12], 333.3 nM	1.08 ± 0.19	–
[12], 1000 nM	0.977 ± 0.058	–
[12], 3000 nM	0.991 ± 0.17	–
